Results reported in the supplement of paper PMC10627819.

Columns and labels:
B. subtilis 168 [1] = test: fitness (endpoint OD595 vs no drug) (fraction); higher = more growth
Outline: (§1)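 Fitness expresses the optical density reached at the stationary-phase transition as a fraction of the robust mean of no-drug control wells. It is capped at 1. Measurements were OD595 every 30 min for 14 h at 37 °C after inoculation of 384-well plates at OD595 0.01 (30 µl, or 55 µl for S. pneumoniae), minus the first reading.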

S. aureus Newman [2] = test: as above
Outline: as §1

S. pneumoniae D39V [3] = test: as above
Outline: as §1

B. subtilis 168 [4] = test: Bliss interaction score (quartile over a dose matrix) (fitness difference); higher = more antagonism (negative = synergy)
Outline: (§2)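 OD595 was read at entry into stationary phase and expressed relative to the robust mean of the no-drug wells on the same plate, capped at 1. The resulting ratio is the fitness value. The Bliss score, observed fitness minus product-based expected fitness with single-drug fitness inferred from combinations, is summarised by quartiles over technical, biological and donor/recipient replicates.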

S. aureus DSM 20231 = test: as above
Outline: as §2

S. aureus Newman [5] = test: as above
Outline: as §2

S. pneumoniae D39V [6] = test: as above
Outline: as §2
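Wherever Bliss interaction score (quartile over a dose matrix) is given: first quartile when negative (synergy) and third quartile when positive (antagonism).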

CCCCCCCCCC(=O)N[C@@H](Cc1c[nH]c2ccccc12)C(=O)N[C@H](CC(N)=O)C(=O)N[C@@H](CC(=O)O)C(=O)N[C@@H]1C(=O)NCC(=O)N[C@@H](CCCN)C(=O)N[C@@H](CC(=O)O)C(=O)N[C@H](C)C(=O)N[C@@H](CC(=O)O)C(=O)NCC(=O)N[C@H](CO)C(=O)N[C@@H]([C@H](C)CC(=O)O)C(=O)N[C@@H](CC(=O)c2ccccc2N)C(=O)O[C@@H]1C [Daptomycin] + CC(C1CCC(C(O1)OC2C(CC(C(C2O)OC3C(C(C(CO3)(C)O)NC)O)N)N)N)NC [Gentamicin]
main component drawn
Conditions	fitness
B. subtilis 168 [1], first compound 0.125 µg/mL, partner 0.0625 µg/mL	0.905
B. subtilis 168 [1], first compound 0.125 µg/mL, partner 0.25 µg/mL	0.0486
B. subtilis 168 [1], first compound 0.25 µg/mL, partner 0.0625 µg/mL	0.906
S. aureus Newman [2], first compound 0.125 µg/mL, partner 0.5 µg/mL	0.926
S. aureus Newman [2], first compound 0.125 µg/mL, partner 1 µg/mL	≥ 1
S. aureus Newman [2], first compound 0.125 µg/mL, partner 2 µg/mL	≥ 1
S. aureus Newman [2], first compound 0.25 µg/mL, partner 0.5 µg/mL	0.947
S. aureus Newman [2], first compound 0.25 µg/mL, partner 1 µg/mL	≥ 1
S. aureus Newman [2], first compound 0.25 µg/mL, partner 2 µg/mL	≥ 1
S. aureus Newman [2], first compound 0.5 µg/mL, partner 0.5 µg/mL	0.949
S. aureus Newman [2], first compound 0.5 µg/mL, partner 1 µg/mL	0.993
S. aureus Newman [2], first compound 0.5 µg/mL, partner 2 µg/mL	≥ 1
S. pneumoniae D39V [3], first compound 1 µg/mL, partner 2 µg/mL	0.952
S. pneumoniae D39V [3], first compound 1 µg/mL, partner 4 µg/mL	0.917
S. pneumoniae D39V [3], first compound 1 µg/mL, partner 8 µg/mL	0.868
S. pneumoniae D39V [3], first compound 2 µg/mL, partner 2 µg/mL	0.956
S. pneumoniae D39V [3], first compound 2 µg/mL, partner 4 µg/mL	0.905
S. pneumoniae D39V [3], first compound 2 µg/mL, partner 8 µg/mL	0.877
S. pneumoniae D39V [3], first compound 4 µg/mL, partner 8 µg/mL	0.724

fitness, one replicate, main component drawn
Conditions	partner 0.0625 µg/mL	partner 0.125 µg/mL	partner 0.25 µg/mL	partner 0.375 µg/mL	partner 0.75 µg/mL	partner 1.5 µg/mL
B. subtilis 168 [1], first compound 1 µg/mL	0.718	0.499	0.0176	–	–	–
S. aureus Newman [2], first compound 0.125 µg/mL	–	–	–	≥ 1	≥ 1	0.656
S. aureus Newman [2], first compound 0.25 µg/mL	–	–	–	≥ 1	≥ 1	0.153
S. aureus Newman [2], first compound 0.5 µg/mL	–	–	–	≥ 1	≥ 1	0.237

main component drawn
Conditions	Bliss interaction score
B. subtilis 168 [4]	0.136
S. aureus DSM 20231	0.0663
S. aureus Newman [5]	-0.0263
S. pneumoniae D39V [6]	0.0772

CCCCCCCCCC(=O)N[C@@H](Cc1c[nH]c2ccccc12)C(=O)N[C@H](CC(N)=O)C(=O)N[C@@H](CC(=O)O)C(=O)N[C@@H]1C(=O)NCC(=O)N[C@@H](CCCN)C(=O)N[C@@H](CC(=O)O)C(=O)N[C@H](C)C(=O)N[C@@H](CC(=O)O)C(=O)NCC(=O)N[C@H](CO)C(=O)N[C@@H]([C@H](C)CC(=O)O)C(=O)N[C@@H](CC(=O)c2ccccc2N)C(=O)O[C@@H]1C [Daptomycin] + CN(C)c1cc(NC(=O)CNC(C)(C)C)c(O)c2c1C[C@H]1C[C@H]3[C@H](N(C)C)C(O)=C(C(N)=O)C(=O)[C@@]3(O)C(O)=C1C2=O [Tigecycline]
fitness
Conditions	first compound 0.125 µg/mL	first compound 0.25 µg/mL	first compound 0.5 µg/mL	first compound 1 µg/mL	first compound 2 µg/mL	first compound 4 µg/mL
B. subtilis 168 [1], partner 0.039 µg/mL	0.929	0.926	0.869	–	–	–
B. subtilis 168 [1], partner 0.078 µg/mL	0.89	0.892	0.867	–	–	–
B. subtilis 168 [1], partner 0.156 µg/mL	0.904	0.905	0.885	–	–	–
S. aureus Newman [2], partner 0.039 µg/mL	0.932	0.984	0.917	–	–	–
S. aureus Newman [2], partner 0.078 µg/mL	≥ 1	0.988	0.987	–	–	–
S. aureus Newman [2], partner 0.156 µg/mL	≥ 1	0.997	0.991	–	–	–
S. pneumoniae D39V [3], partner 0.325 µg/mL	–	–	–	0.973	0.993	0.976
S. pneumoniae D39V [3], partner 0.65 µg/mL	–	–	–	0.959	0.945	0.963
S. pneumoniae D39V [3], partner 1.3 µg/mL	–	–	–	0.963	0.956	0.972
S. pneumoniae D39V [3], partner 2.6 µg/mL	–	–	–	0.911	0.903	0.956

fitness, B. subtilis 168 [1], one replicate
Conditions	partner 0.039 µg/mL	partner 0.078 µg/mL	partner 0.125 µg/mL	partner 0.156 µg/mL	partner 0.25 µg/mL	partner 0.5 µg/mL
first compound 0.125 µg/mL	–	–	0.985	–	0.902	0.899
first compound 0.25 µg/mL	–	–	0.974	–	0.926	0.981
first compound 0.5 µg/mL	–	–	0.955	–	0.944	0.989
first compound 1 µg/mL	0.759	0.732	–	0.731	–	–

Conditions	Bliss interaction score
B. subtilis 168 [4]	-0.0609
S. aureus DSM 20231	0.0697
S. aureus Newman [5]	-0.037
S. pneumoniae D39V [6]	0.0991

CCCCCCCCCC(=O)N[C@@H](Cc1c[nH]c2ccccc12)C(=O)N[C@H](CC(N)=O)C(=O)N[C@@H](CC(=O)O)C(=O)N[C@@H]1C(=O)NCC(=O)N[C@@H](CCCN)C(=O)N[C@@H](CC(=O)O)C(=O)N[C@H](C)C(=O)N[C@@H](CC(=O)O)C(=O)NCC(=O)N[C@H](CO)C(=O)N[C@@H]([C@H](C)CC(=O)O)C(=O)N[C@@H](CC(=O)c2ccccc2N)C(=O)O[C@@H]1C [Daptomycin] + CN[C@@H]1[C@H](O[C@H]2[C@H](O[C@H]3[C@H](O)[C@@H](O)[C@H](N=C(N)N)[C@@H](O)[C@@H]3N=C(N)N)O[C@@H](C)[C@]2(O)C=O)O[C@@H](CO)[C@H](O)[C@H]1O [Streptomycin]
fitness
Conditions	partner 1 µg/mL	partner 2 µg/mL	partner 4 µg/mL	partner 8 µg/mL
B. subtilis 168 [1], first compound 0.125 µg/mL	–	0.954	0.651	0.0465
B. subtilis 168 [1], first compound 0.25 µg/mL	–	0.977	–	0.0589
B. subtilis 168 [1], first compound 0.5 µg/mL	–	0.923	–	0.0321
S. aureus Newman [2], first compound 0.125 µg/mL	0.971	0.988	–	–
S. aureus Newman [2], first compound 0.25 µg/mL	0.964	0.985	–	–
S. aureus Newman [2], first compound 0.5 µg/mL	0.986	0.973	–	–
S. pneumoniae D39V [3], first compound 1 µg/mL	–	0.926	0.902	0.825
S. pneumoniae D39V [3], first compound 2 µg/mL	–	0.955	0.909	0.876
S. pneumoniae D39V [3], first compound 4 µg/mL	–	0.95	0.924	0.86

fitness, one replicate
Conditions	first compound 1 µg/mL	first compound 2 µg/mL	first compound 4 µg/mL
B. subtilis 168 [1], partner 2 µg/mL	0.654	–	–
B. subtilis 168 [1], partner 4 µg/mL	0.245	–	–
B. subtilis 168 [1], partner 8 µg/mL	0.0183	–	–
S. pneumoniae D39V [3], partner 16 µg/mL	0.795	0.804	0.773

Conditions	Bliss interaction score
B. subtilis 168 [4]	-0.0625
S. aureus DSM 20231	0.0838
S. aureus Newman [5]	0.0589
S. pneumoniae D39V [6]	0.103
